Experimental data reported in article PMC10788925 (Journal of Medicinal Chemistry, 2023).
Values joined by “and” are separate entries in the source; they are usually repeats but may differ in a detail not shown here. Identical values can stand only once. Like-named read-outs stand apart in the source and are kept apart here.

Tests used:
[1] = test system: HEV-3 replicon p6-Gluc; experiment: microbe, parasite or virus in culture; assay type: cell-based, Hepatitis E virus
[2] = in vitro; conditions: human
[3] = Hepatitis E virus, HepG2, 24 h, read-out: HEV, EC90 (24 h, nM)
[4] = Hepatitis E virus, HepG2, 48 h, read-out: HEV, EC90 (48 h, nM)2

Compound	EC50 ([1]; Hepatitis E virus, HepG2, 24 h) [µM]	EC90 ([1]; Hepatitis E virus, HepG2, 24 h) [nM]	EC50 ([1]; Hepatitis E virus, HepG2, 48 h) [µM]	EC90 ([1]; Hepatitis E virus, HepG2, 48 h) [nM]	CC50 at 24 h [2] [µM]	CC50 at 48 h [2] [µM]	CC50 [2] [µM]	EC90 [1, 3] [nM]	EC90 [1, 4] [nM]	EC50 ([1]; read-out: EC50)	EC90 ([1]; read-out: EC90)
COC(=O)[C@H]1[C@@H](O)[C@@]2(O)c3c(OC)cc(OC)cc3O[C@@]2(c2ccc(Cl)cc2)[C@@H]1c1ccccc1 (racemic) [9a, (±)-Methyl (1R,2R,3S,3aR,8bS)-3a-(4-chlorophenyl)-1,8b-dihydroxy-6,8-dimethoxy-3-phenyl-2,3,3a,8b-tetrahydro-1H-cyclopenta[b]benzofuran-2-carboxylate]	0.0194	140	0.0168	105	0.513	0.0388					
COC(=O)[C@H]1[C@@H](O)[C@@]2(O)c3c(Cl)cc(Cl)cc3O[C@@]2(c2ccc(Br)cc2)[C@@H]1c1ccccc1 (racemic) [9db, (±)-Methyl (1R,2R,3S,3aR,8bS)-3a-(4-bromophenyl)-6,8-dichloro-1,8b-dihydroxy-3-phenyl-2,3,3a,8b-tetrahydro-1H-cyclopenta[b]benzofuran-2-carboxylate]	0.0296	128	0.0147	124	0.389	0.048					
COC(=O)[C@H]1[C@@H](O)[C@@]2(O)c3c(Br)cc(Br)cc3O[C@@]2(c2ccc(OC)cc2)[C@@H]1c1ccccc1 (racemic) [9e, (±)-Methyl (1R,2R,3S,3aR,8bS)-6,8-dibromo-1,8b-dihydroxy-3a-(4-methoxyphenyl)-3-phenyl-2,3,3a,8b-tetrahydro-1H-cyclopenta[b]benzofuran-2-carboxylate]	0.0361	362	0.0332	282	0.766	0.0902					
COC(=O)[C@H]1[C@@H](O)[C@@]2(O)c3c(Cl)cc(Br)cc3O[C@@]2(c2ccc(OC)cc2)[C@@H]1c1ccccc1 (racemic) [9f, (±)-Methyl (1R,2R,3S,3aR,8bS)-6-bromo-8-chloro-1,8b-dihydroxy-3a-(4-methoxyphenyl)-3-phenyl-2,3,3a,8b-tetrahydro-1H-cyclopenta[b]benzofuran-2-carboxylate]	0.0099	583	0.0149	454	0.663	0.061					
COC(=O)[C@H]1[C@@H](O)[C@@]2(O)c3c(Br)cc(Cl)cc3O[C@@]2(c2ccc(OC)cc2)[C@@H]1c1ccccc1 (racemic) [9g, (±)-Methyl (1R,2R,3S,3aR,8bS)-8-bromo-6-chloro-1,8b-dihydroxy-3a-(4-methoxyphenyl)-3-phenyl-2,3,3a,8b-tetrahydro-1H-cyclopenta[b]benzofuran-2-carboxylate]	0.0521	482	0.0379	365	0.812	0.101					
COC(=O)[C@H]1[C@@H](O)[C@@]2(O)c3c(F)cc(OC)cc3O[C@@]2(c2ccc(OC)cc2)[C@@H]1c1ccccc1 (racemic) [9h, (±)-Methyl (1R,2R,3S,3aR,8bS)-8-fluoro-1,8b-dihydroxy-6-methoxy-3a-(4-methoxyphenyl)-3-phenyl-2,3,3a,8b-tetrahydro-1H-cyclopenta[b]benzofuran-2-carboxylate]	0.061	> 1000	0.0643	634		0.163	> 1				
COC(=O)[C@H]1[C@@H](O)[C@@]2(O)c3c(OC)cc(F)cc3O[C@@]2(c2ccc(OC)cc2)[C@@H]1c1ccccc1 (racemic) [9i, (±)-Methyl (1R,2R,3S,3aR,8bS)-6-fluoro-1,8b-dihydroxy-8-methoxy-3a-(4-methoxyphenyl)-3-phenyl-2,3,3a,8b-tetrahydro-1H-cyclopenta[b]benzofuran-2-carboxylate]	> 1	> 1000	0.732	> 1000		0.904	> 1	> 1000	> 1000		
COC(=O)[C@H]1[C@@H](O)[C@@]2(O)c3c(Cl)cc(OC)cc3O[C@@]2(c2ccc(OC)cc2)[C@@H]1c1ccccc1 (racemic) [9j, (±)-Methyl (1R,2R,3S,3aR,8bS)-8-chloro-1,8b-dihydroxy-6-methoxy-3a-(4-methoxyphenyl)-3-phenyl-2,3,3a,8b-tetrahydro-1H-cyclopenta[b]benzofuran-2-carboxylate]	0.0926	577	0.0757	394	0.832	0.148					
COC(=O)[C@H]1[C@@H](O)[C@@]2(O)c3c(OC)cc(Cl)cc3O[C@@]2(c2ccc(OC)cc2)[C@@H]1c1ccccc1 (racemic) [9k, (±)-Methyl (1R,2R,3S,3aR,8bS)-6-chloro-1,8b-dihydroxy-8-methoxy-3a-(4-methoxyphenyl)-3-phenyl-2,3,3a,8b-tetrahydro-1H-cyclopenta[b]benzofuran-2-carboxylate]	0.0054	45.1	0.0025	45.5	0.443	0.0199					
COC(=O)[C@H]1[C@@H](O)[C@@]2(O)c3c(Br)cc(OC)cc3O[C@@]2(c2ccc(OC)cc2)[C@@H]1c1ccccc1 (racemic) [9l, (±)-Methyl (1R,2R,3S,3aR,8bS)-8-bromo-1,8b-dihydroxy-6-methoxy-3a-(4-methoxyphenyl)-3-phenyl-2,3,3a,8b-tetrahydro-1H-cyclopenta[b]benzofuran-2-carboxylate]	0.0836	343	0.0447	305	0.787	0.114					
COCOc1cc(F)c2c(c1)O[C@@]1(c3ccc(OC)cc3)[C@H](c3ccccc3)[C@@H](C(=O)OC)[C@@H](O)[C@@]21O (racemic) [9na, (±)-Methyl (1R,2R,3S,3aR,8bS)-8-fluoro-1,8b-dihydroxy-6-(methoxymethoxy)-3a-(4-methoxyphenyl)-3-phenyl-2,3,3a,8b-tetrahydro-1H-cyclopenta[b]benzofuran-2-carboxylate]	0.202	> 1000	0.146	873	0.912	0.236					
COCOc1cc(F)c2c(c1)O[C@@]1(c3ccc(Br)cc3)[C@H](c3ccccc3)[C@@H](C(=O)OC)[C@@H](O)[C@@]21O (racemic) [9nb, (±)-Methyl (1R,2R,3S,3aR,8bS)-3a-(4-bromophenyl)-8-fluoro-1,8b-dihydroxy-6-(methoxymethoxy)-3-phenyl-2,3,3a,8b-tetrahydro-1H-cyclopenta[b]benzofuran-2-carboxylate]	0.0869	345	0.0632	298	0.727	0.113					
COC(=O)[C@H]1[C@@H](O)[C@@]2(O)c3c(OC)cc(OC)cc3O[C@@]2(c2ccc(F)cc2)[C@@H]1c1ccccc1 (racemic) [11ba, (±)-Methyl (1R,2R,3S,3aR,8bS)-3a-(4-fluorophenyl)-1,8b-dihydroxy-6,8-dimethoxy-3-phenyl-2,3,3a,8b-tetrahydro-1H-cyclopenta[b]benzofuran-2-carboxylate]	0.338	> 1000	0.334	> 1000		0.421	> 1	> 1000	> 1000		
COC(=O)[C@H]1[C@@H](O)[C@@]2(O)c3c(OC)cc(OC)cc3O[C@@]2(c2ccc(Br)cc2)[C@@H]1c1ccccc1 (racemic) [11bb, (±)-Methyl (1R,2R,3S,3aR,8bS)-3a-(4-bromophenyl)-1,8b-dihydroxy-6,8-dimethoxy-3-phenyl-2,3,3a,8b-tetrahydro-1H-cyclopenta[b]benzofuran-2-carboxylate]	0.0073	158	0.0094	91.3	0.42	0.0271					
COc1cc(OC)c2c(c1)O[C@@]1(c3ccc(Cl)cc3)[C@H](c3ccccc3)[C@@H](C(=O)N(C)C)[C@@H](O)[C@@]21O (racemic) [14aa, (±)-(1R,2R,3S,3aR,8bS)-3a-(4-chlorophenyl)-1,8b-dihydroxy-6,8-dimethoxy-N,N-dimethyl-3-phenyl-2,3,3a,8b-tetrahydro-1H-cyclopenta[b]benzofuran-2-carboxamide]	0.0072	174	0.0089	102	0.39	0.0227					
COc1cc(OC)c2c(c1)O[C@@]1(c3ccc(F)cc3)[C@H](c3ccccc3)[C@@H](C(=O)N(C)C)[C@@H](O)[C@@]21O (racemic) [14baa, (±)-(1R,2R,3S,3aR,8bS)-3a-(4-fluorophenyl)-1,8b-dihydroxy-6,8-dimethoxy-N,N-dimethyl-3-phenyl-2,3,3a,8b-tetrahydro-1H-cyclopenta[b]benzofuran-2-carboxamide]	0.229	> 1000	0.208	829	0.966	0.297					
(±)-(1R,2R,3S,3aR,8bS)-1,8b-Dihydroxy-N,6,8-trimethoxy-3a-(4-methoxyphenyl)-3-phenyl-2,3,3a,8b-tetrahydro-1H-cyclopenta[b]benzofuran-2-carboxamide [(±)-CR-31-B (rac-1c), reference compound]										0.0061 µM and 0.0037 µM	27.3 nM and 29 nM
(±)-(1R,2R,3S,3aR,8bS)-3a-(4-chlorophenyl)-1,8b-dihydroxy-N,6,8-trimethoxy-3-phenyl-2,3,3a,8b-tetrahydro-1H-cyclopenta[b]benzofuran-2-carboxamide [14ab]										0.0028 µM and 0.0023 µM	18.2 nM and 23.8 nM
(±)-(1R,2R,3S,3aR,8bS)-3a-(4-fluorophenyl)-1,8b-dihydroxy-N,6,8-trimethoxy-3-phenyl-2,3,3a,8b-tetrahydro-1H-cyclopenta[b]benzofuran-2-carboxamide [14bab]										0.0537 µM and 0.0529 µM	338 nM and 670 nM
(±)-(1R,2R,3S,3aR,8bS)-8-Bromo-6-chloro-1,8b-dihydroxy-N-methoxy-3a-(4-methoxyphenyl)-3-phenyl-2,3,3a,8b-tetrahydro-1H-cyclopenta[b]benzofuran-2-carboxamide [14g]										0.0041 µM and 0.0055 µM	
